Measured values published in patent US8859543B2, “Imidazo[1,2-a]pyrazine derivatives and their use for the prevention or treatment of neurological, psychiatric and metabolic disorders and diseases” (Janssen Pharmaceutica NV, priority 2010, dated 2014).
Like-named read-outs stand apart in the source and are kept apart here.

Legend:
[1] = target: T1, Rat recombinant PDE10A (rPDE10A2) (Rattus norvegicus, UniProt Q9QYJ6); assay: In vitro assay PDE10A (SPA, 3H-cAMP); format: biochemical; conditions: pIC50 corresponds to the -log IC50 expressed in mol/L; for IC50: read-out: PDE10A2 pIC50 (converted)
T1 construct: made in house; host or cells: Sf9 insect cells, baculovirus
T1 sequence (Q9QYJ6 1-794): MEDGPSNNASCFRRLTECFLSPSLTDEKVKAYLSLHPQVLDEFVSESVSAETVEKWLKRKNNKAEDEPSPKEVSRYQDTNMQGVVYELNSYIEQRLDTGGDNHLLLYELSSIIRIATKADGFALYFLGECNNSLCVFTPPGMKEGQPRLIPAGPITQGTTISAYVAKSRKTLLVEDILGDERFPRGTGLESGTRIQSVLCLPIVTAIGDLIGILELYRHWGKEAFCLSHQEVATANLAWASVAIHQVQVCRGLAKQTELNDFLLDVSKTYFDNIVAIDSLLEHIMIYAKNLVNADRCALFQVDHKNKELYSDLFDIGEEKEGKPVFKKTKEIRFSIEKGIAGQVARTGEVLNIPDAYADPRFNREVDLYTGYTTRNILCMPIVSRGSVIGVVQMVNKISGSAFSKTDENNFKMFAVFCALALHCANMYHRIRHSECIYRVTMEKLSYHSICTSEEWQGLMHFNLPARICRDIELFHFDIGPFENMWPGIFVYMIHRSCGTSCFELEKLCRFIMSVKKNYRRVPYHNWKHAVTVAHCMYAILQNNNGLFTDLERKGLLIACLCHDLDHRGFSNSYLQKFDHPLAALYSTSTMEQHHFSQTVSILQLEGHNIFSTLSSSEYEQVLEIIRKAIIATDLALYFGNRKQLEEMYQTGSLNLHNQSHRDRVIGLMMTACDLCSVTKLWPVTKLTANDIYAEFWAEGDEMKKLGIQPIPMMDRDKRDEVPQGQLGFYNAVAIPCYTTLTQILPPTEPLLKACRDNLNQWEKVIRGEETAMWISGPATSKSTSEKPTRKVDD
Procedure: Rat recombinant PDE10A (rPDE10A2) was expressed in Sf9 cells using a recombinant rPDE10A baculovirus construct. Cells were harvested after 48 h of infection and the rPDE10A protein was purified by metal chelate chromatography on Ni-sepharose 6FF. Tested compounds were dissolved and diluted in 100% DMSO to a concentration 100 fold of the final concentration in the assay. Compound dilutions (0.4 μl) were added in 384 well plates to 20 μl of incubation buffer (50 mM Tris pH 7.8, 8.3 mM MgCl2, 1.7 mM EGTA). 10 μl of rPDE10A enzyme in incubation buffer was added and the reaction was started by addition of 10 μl substrate to a final concentration of 60 nM cAMP and 0.008 μCi ^3H-cAMP. The reaction was incubated for 60 min. at RT. […] After sedimentation of the beads during 30 min. the radioactivity was measured in a Perkin Elmer Topcount scintillation counter and results were expressed as cpm. For blank values the enzyme was omitted from the reaction and replaced by incubation buffer. Control values were obtained by addition of a final concentration of 1% DMSO instead of compound. The same assay principle is applied for the measurement of the affinity of the compound for other members of the PDE family with appropriate modifications in incubation buffer, substrate concentration, incubation time and stop solution.

[2] = tested on: apomorphine-induced stereotypy; assay: Apomorphine-induced stereotypy in rats (APO); format: in vivo; conditions: Rattus norvegicus
Procedure: Apomorphine-Induced Stereotypy in Rats (APO)
Apomorphine (1.0 mg/kg, i.v.)-induced stereotypy (compulsive sniffing, licking, chewing) was scored every 5 min. over the first hour after injection of apomorphine, following a 1 hour interval pre-treatment with the test compound. The score system was: (3) pronounced, (2) moderate, (1) slight, and (O) absent.

[3] = not active at 2.5 or at 10 mg/kg, not further tested, read-out: APO ED50 (not active at threshold dose)
[4] = po, * compound was not soluble and was tested orally as a suspension, read-out: APO ED50

IC50 [1] [nM]	Structure (SMILES)	ED50 [2, 3] [mg/kg]	PDE10A2 pIC50 [1]	ED50 ([2]; read-out: APO ED50) [mg/kg]	ED50 [2, 4] [mg/kg]
–	Cc1nc2c(N3CCOCC3)nccn2c1-c1cnn(C(C)C)c1 [compound 81]	> 2.5	6.95	–	–
275	Cc1nc2c(N3CCOCC3)nccn2c1-c1cnn(CCN2CCOCC2)c1 [compound 116]	> 2.5	–	–	–
74.1	Cc1nc2c(N3CCOCC3)nccn2c1-c1ccnc(CC(C)C)c1 [compound 27, 3-(2-Isobutyl-pyridin-4-yl)-2-methyl-8-morpholin-4-yl-imidazo[1,2-a]pyrazine]	> 2.5	–	–	–
380	Cc1nc2c(N3CCOCC3)nccn2c1-c1ccc(OCC(F)(F)F)nc1 [compound 122]	> 2.5	–	–	–
83.2	c1cn2c(-c3ccc(N4CCOCC4)nc3)c(C3CC3)nc2c(N2CCOCC2)n1 [compound 63]	> 2.5	–	–	–
–	CCn1cc(-c2c(C)nc3c(N4CCOCC4)nccn23)cn1 [compound 38, 3-(1-Ethyl-1H-pyrazol-4-yl)-2-methyl-8-morpholin-4-yl-imidazo[1,2-a]pyrazine]	–	6.63	≤ 10	–
219	CCC(COC)n1cc(-c2c(C)nc3c(N4CCOCC4)nccn23)cn1 (centres unmarked) [compound 111]	> 2.5	–	–	–
57.5	CCOC(C)(C)c1ccc(-c2c(C)nc3c(N4CCOCC4)nccn23)cn1 [compound 55]	> 2.5	–	–	–
–	Cc1nc2c(N3CCOCC3)nccn2c1-c1cnn(Cc2ccncc2)c1 [compound 77]	–	6.99	≤ 10	–
–	Cc1nc2c(N3CCOCC3)nccn2c1-c1cnn(CC(F)(F)F)c1 [compound 49]	–	7.33	5	–
–	COCCn1cc(-c2c(C#N)nc3c(N4CCOCC4)nccn23)cn1 [compound 40, 3-[1-(2-Methoxy-ethyl)-1H-pyrazol-4-yl]-8-morpholin-4-yl-imidazo[1,2-a]pyrazine-2-carbonitrile]	–	7.07	5	–
126	c1cn2c(-c3ccc(N4CCNCC4)nc3)c(C3CC3)nc2c(N2CCOCC2)n1 [compound 87]	> 2.5	–	–	–
372	Cc1nc2c(N3CCOCC3)nccn2c1-c1cnn(Cc2ccc(Cl)cc2)c1 [compound 121]	> 2.5	–	–	–
115	c1cn2c(-c3ccc(C4CCOCC4)nc3)c(C3CC3)nc2c(N2CCOCC2)n1 [compound 83]	> 2.5	–	–	–
57.5	Cc1nc2c(N3CCOCC3)nccn2c1-c1cnn(CC(F)F)c1 [compound 56]	–	–	–	3.1
141	COc1nc2c(N3CCOCC3)nccn2c1-c1ccc(CC(C)(C)OC)nc1 [compound 95]	> 2.5	–	–	–
95.5	CCC(COC)n1cc(-c2c(C)nc3c(N4CCOCC4)nccn23)cn1 (single isomer, unassigned) [compound 74]	> 2.5	–	–	–
724	Cc1nc2c(-c3ccncc3)nccn2c1-c1cnn(CCO)c1 [compound 138]	> 2.5	–	–	–
97.7	Cc1nc2c(N3CCOCC3)nccn2c1-c1ccnc(NC(C)C)c1 [compound 22, Isopropyl-[4-(2-methyl-8-morpholin-4-yl-imidazo[1,2-a]pyrazin-3-yl)-pyridin-2-yl]-amine]	> 2.5	–	–	–
575	COCCc1ccc(-c2cnc3c(N4CCOCC4)nccn23)cn1 [compound 136]	> 2.5	–	–	–
263	Cc1nc2c(N3CCOCC3)nccn2c1-c1cnc(C(C)C)[nH]1 [compound 114]	> 2.5	–	–	–
151	Cc1nc2c(N3CCOCC3)nccn2c1-c1ccnc(N2CCCC2)c1 [compound 99]	> 2.5	–	–	–
–	COCCn1cc(-c2c(C)nc3c(N4CCOCC4)nccn23)cn1 [compound 35, 2-Methyl-3-[1-(2-methoxy-ethyl)-1H-pyrazol-4-yl]-8-morpholin-4-yl-imidazo[1,2-a]pyrazine]	–	–	5	–
–	CCOCc1ccc(-c2c(C)nc3c(N4CCOCC4)nccn23)cn1 [compound 5, 3-(6-Ethoxymethyl-pyridin-3-yl)-2-methyl-8-morpholin-4-yl-imidazo[1,2-a]pyrazine]	> 2.5	–	–	–
–	CCOCCc1ccc(-c2c(C)nc3c(N4CCOCC4)nccn23)cn1 [compound 20, 3-[6-(2-Ethoxy-ethyl)-pyridin-3-yl]-2-methyl-8-morpholin-4-yl-imidazo[1,2-a]pyrazine]	–	–	1.2	–
–	COCCOc1ccc(-c2c(C)nc3c(N4CCOCC4)nccn23)cn1 [compound 1, 3-[6-(2-Methoxy-ethoxy)-pyridin-3-yl]-2-methyl-8-morpholin-4-yl-imidazo[1,2-a]pyrazine]	–	–	–	0.8
–	COCCCc1ccc(-c2c(C)nc3c(N4CCOCC4)nccn23)cn1 [compound 6, 3-[6-(3-Methoxy-propyl)-pyridin-3-yl]-2-methyl-8-morpholin-4-yl-imidazo[1,2-a]pyrazine]	–	–	≤ 2.5	–
–	COCCc1cc(-c2c(C)nc3c(N4CCOCC4)nccn23)ccn1 [compound 19, 3-[2-(2-Methoxy-ethyl)-pyridin-4-yl]-2-methyl-8-morpholin-4-yl-imidazo[1,2-a]pyrazine]	> 2.5	–	–	–

Structure (SMILES)	IC50 [1] [nM]	ED50 [2, 3] [mg/kg]	PDE10A2 pIC50 [1]	ED50 ([2]; read-out: APO ED50) [mg/kg]	ED50 [2, 4] [mg/kg]
Cc1nc2c(N3CCOCC3)nccn2c1-c1cnn(CC2CCCO2)c1 (single isomer, unassigned) [compound 90]	135	> 2.5	–	–	–
COC(C)(C)COc1ccc(-c2c(C)nc3c(N4CCOCC4)nccn23)cn1 [compound 3, 3-[6-(2-Methoxy-2-methyl-propoxy)-pyridin-3-yl]-2-methyl-8-morpholin-4-yl-imidazo[1,2-a]pyrazine]	457	–	–	5	–
COC(C)CCn1cc(-c2c(C)nc3c(N4CCOCC4)nccn23)cn1 (single isomer, unassigned) [compound 84]	117	> 2.5	–	–	–
COCCn1cc(-c2cnc3c(N4CCOCC4)nccn23)cn1 [compound 141]	955	–	–	5	–
CO[C@@H](C)Cn1cc(-c2c(C)nc3c(-c4ccncc4)nccn23)cn1 [compound 101]	162	–	–	3.1	–
Cc1nc2c(N3CCOCC3)nccn2c1-c1ccc(OCC2CC2)nc1 [compound 134]	562	–	–	≤ 10	–
Cc1nc2c(N3CCOCC3)nccn2c1-c1cnn(C2CCOC2)c1 (centres unmarked) [compound 82]	115	–	–	3.1	–
COC[C@@H](C)n1cc(-c2c(C)nc3c(-c4ccncc4)nccn23)cn1 [compound 104]	170	–	–	5	–
CC(=O)CCn1cc(-c2c(C)nc3c(N4CCOCC4)nccn23)cn1 [compound 36, 4-[4-(2-Methyl-8-morpholin-4-yl-imidazo[1,2-a]pyrazin-3-yl)-pyrazol-1-yl]-butan-2-one]	138	–	–	3.1	–
COCCCn1cc(-c2c(C)nc3c(N4CCOCC4)nccn23)cn1 [compound 68]	87.1	–	–	3.1	–
Cc1nc2c(N3CCOCC3)nccn2c1-c1cnn(CC2CCCO2)c1 (single isomer, unassigned) [compound 71]	95.5	–	–	5	–
Cc1nc2c(N3CCOCC3)nccn2c1-c1cnn(CC2CCCCO2)c1 (single isomer, unassigned) [compound 58]	67.6	> 2.5	–	–	–
Cc1nc2c(N3CCOCC3)nccn2c1-c1cnn(Cc2cccnc2)c1 [compound 65]	85.1	–	–	5	–
Cc1nc2c(N3CCOCC3)nccn2c1-c1cnn(CC2CCOCC2)c1 [compound 89]	135	–	–	≤ 10	–
COC(C)CCn1cc(-c2c(C)nc3c(N4CCOCC4)nccn23)cn1 (single isomer, unassigned) [compound 61]	79.4	–	–	5	–
